# Experimental data taken from patent US20240217990A1 (Gilead Sciences, Inc., priority 2021, published 2024).
# pEC50: −log10 of the molar value.
# How the values were obtained:
# [1] = target: T1, TLR7 (Homo sapiens, UniProt Q9NYK1); experiment: TLR7 human PBMC cell-based assay (antagonist, GS-986 stimulated cytokine release); details: human PBMCs; TLR7 agonist GS-986 400 nM, 6 hours; cytokines (IL-6 and IFNα) in supernatant; read-out: TLR-7 EC50
# T1 construct: Human peripheral blood mononuclear cells (PBMCs) consist of lymphocytes, monocytes and dendritic cells that express TLR7, TLR8 and TLR9; endogenous in cells; host or cells: cryopreserved human PBMCs from healthy donors
# T1 sequence (Q9NYK1 27-1049): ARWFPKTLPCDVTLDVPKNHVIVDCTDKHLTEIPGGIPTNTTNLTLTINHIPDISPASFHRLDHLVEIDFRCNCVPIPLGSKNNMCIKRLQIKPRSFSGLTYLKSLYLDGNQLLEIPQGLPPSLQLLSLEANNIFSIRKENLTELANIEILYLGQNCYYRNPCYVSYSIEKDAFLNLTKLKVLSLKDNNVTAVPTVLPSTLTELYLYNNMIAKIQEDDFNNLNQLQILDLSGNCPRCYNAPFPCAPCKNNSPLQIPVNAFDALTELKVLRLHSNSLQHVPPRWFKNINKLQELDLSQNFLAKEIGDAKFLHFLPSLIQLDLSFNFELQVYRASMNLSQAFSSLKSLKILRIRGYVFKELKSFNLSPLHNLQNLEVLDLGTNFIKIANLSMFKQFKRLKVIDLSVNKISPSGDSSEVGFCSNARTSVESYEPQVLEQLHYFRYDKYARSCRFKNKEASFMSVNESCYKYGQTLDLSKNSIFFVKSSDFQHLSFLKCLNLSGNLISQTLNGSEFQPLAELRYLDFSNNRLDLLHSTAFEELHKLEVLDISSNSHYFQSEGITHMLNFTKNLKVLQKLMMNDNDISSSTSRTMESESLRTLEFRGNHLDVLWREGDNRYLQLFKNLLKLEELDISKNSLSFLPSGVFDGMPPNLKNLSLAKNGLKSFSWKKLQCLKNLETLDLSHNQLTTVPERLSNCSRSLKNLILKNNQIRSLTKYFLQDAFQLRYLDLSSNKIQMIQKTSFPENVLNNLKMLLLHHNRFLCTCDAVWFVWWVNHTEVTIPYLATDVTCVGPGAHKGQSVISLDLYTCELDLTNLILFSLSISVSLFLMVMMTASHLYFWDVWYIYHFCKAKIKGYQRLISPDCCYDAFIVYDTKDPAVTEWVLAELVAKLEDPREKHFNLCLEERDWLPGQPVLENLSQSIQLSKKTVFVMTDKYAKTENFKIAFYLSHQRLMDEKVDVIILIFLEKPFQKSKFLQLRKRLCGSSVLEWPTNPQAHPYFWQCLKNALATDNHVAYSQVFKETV
# Excerpt: (§1) Human peripheral blood mononuclear cells (PBMCs) consist of lymphocytes, monocytes and dendritic cells that express TLR7, TLR8 and TLR9. These cells respond to TLR7, TLR8 and TLR9 ligand stimulation and produce cytokines and chemokines in vitro and in vivo. Human PBMCs are therefore suitable to be used in a cell-based assay to assess the in vitro potency of a TLR 7, 8, and/or 9 antagonist. The result is expected to be more translatable to the pharmacodynamics response in vivo than cell line-based assays.
# Cryopreserved human PBMCs from healthy donors were thawed and resuspended in RPMI-1640 media with L-glutamine (Corning) supplemented with 10% Fetal Bovine Serum (Hyclone) and 1× Penicillin-Streptomycin (Corning). After counting, the cell density was adjusted to 2 million cells/ml and incubated for 1 hour at 37° C., 5% CO2 for recovery. Following the recovery, the cells were plated by adding 50 μl per well (100,000 cells) to 384-well cell culture plates (Greiner) containing 250 nl of test antagonists in 100% DMSO per well, in a 10 points dose response in quadruplicates. PBMCs were incubated in the presence of test antagonists for one hour at 37° C., 5% CO2 before being stimulated with a TLR7 or TLR9agonist. GS-986 (Gilead Sciences) was used as the TLR7 agonist at a final concentration of 400 nM. ODN-2216 (InvivoGen) was used as the TLR9 agonist at a final concentration of 3 μM. PBMCs were incubated in the presence of the test antagonist and the TLR7 (or TLR9) agonist for an additional 6 hours at 37° C., 5% CO2. At the end of the incubation, the cell culture plates were centrifuged at 500 g for 5 min, and the cell culture supernatant was collected. The level of cytokines (IL-6 and IFNα) in the supernatant was measured by electrochemiluminescence immunoassays (Mesoscale Discovery) following manufacturer's recommended protocols. The level of cytokine measured was plotted against the test antagonist concentration and fitted to a sigmoidal function to determine the EC50, which are shown below in Table 11.
# [2] = target: T2, TLR8 (Homo sapiens, UniProt Q9NR97); experiment: TLR8 human PBMC cell-based assay (antagonist, Compound A stimulated cytokine release); details: human PBMCs; TLR8 agonist Compound A 800 nM, 6 hours; cytokines (TNFa and IL 12p40) in supernatant; read-out: TLR-8 EC50
# T2 construct: Human peripheral blood mononuclear cells (PBMCs) consist of lymphocytes, monocytes and dendritic cells that express TLR7, TLR8 and TLR9; endogenous in cells; host or cells: cryopreserved human PBMCs from healthy donors
# T2 sequence (Q9NR97 27-1041): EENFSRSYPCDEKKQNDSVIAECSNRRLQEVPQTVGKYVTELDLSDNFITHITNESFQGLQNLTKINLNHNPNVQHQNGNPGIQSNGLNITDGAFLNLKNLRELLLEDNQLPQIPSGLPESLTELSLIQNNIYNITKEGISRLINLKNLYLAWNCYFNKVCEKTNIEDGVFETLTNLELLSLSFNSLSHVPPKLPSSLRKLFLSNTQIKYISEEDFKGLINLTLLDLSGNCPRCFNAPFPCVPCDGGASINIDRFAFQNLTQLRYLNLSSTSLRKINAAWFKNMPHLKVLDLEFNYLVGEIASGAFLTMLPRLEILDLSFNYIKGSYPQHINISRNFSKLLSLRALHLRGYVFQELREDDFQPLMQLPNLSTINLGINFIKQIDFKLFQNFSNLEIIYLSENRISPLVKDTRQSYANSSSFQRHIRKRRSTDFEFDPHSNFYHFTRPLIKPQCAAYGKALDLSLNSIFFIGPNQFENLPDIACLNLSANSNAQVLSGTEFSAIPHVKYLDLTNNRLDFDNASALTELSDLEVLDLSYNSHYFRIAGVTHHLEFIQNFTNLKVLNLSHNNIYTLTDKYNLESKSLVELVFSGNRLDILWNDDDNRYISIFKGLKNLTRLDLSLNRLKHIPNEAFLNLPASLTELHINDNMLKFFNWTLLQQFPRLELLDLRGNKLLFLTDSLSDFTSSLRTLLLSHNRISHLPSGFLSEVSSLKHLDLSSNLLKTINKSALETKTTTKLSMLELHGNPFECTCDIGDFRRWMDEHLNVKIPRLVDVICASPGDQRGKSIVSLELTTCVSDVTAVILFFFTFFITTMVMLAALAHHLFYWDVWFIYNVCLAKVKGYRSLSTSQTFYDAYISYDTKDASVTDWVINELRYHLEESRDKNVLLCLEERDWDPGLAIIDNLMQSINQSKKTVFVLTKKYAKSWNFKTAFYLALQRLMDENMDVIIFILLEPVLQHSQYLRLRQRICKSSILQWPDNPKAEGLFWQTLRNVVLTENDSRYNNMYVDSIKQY
# Excerpt: as §1
# Cryopreserved human PBMCs from healthy donors were thawed and resuspended in RPMI-1640 media with L-glutamine (Corning) supplemented with 10% Fetal Bovine Serum (Hyclone) and 1X Penicillin-Streptomycin (Corning). After counting, the cell density was adjusted to 2 million cells/ml and incubated for 1 hour at 37° C., 5% CO2 for recovery. Following the recovery, the cells were plated by adding 50 μl per well (100,000 cells) to 384-well cell culture plates (Greiner) containing 250 nl of test antagonists in 100% DMSO per well, in a 10 points dose response in quadruplicates. PBMCs were incubated in the presence of antagonists for one hour at 37° C., 5% CO2 before being stimulated with TLR8 agonist. Compound A (Gilead Sciences, U.S. Pat. No. 10,285,990) was used as the TLR8 agonist at a final concentration of 800 nM. PBMCs were incubated in the presence of antagonist and the TLR8 agonist for an additional 6 hours at 37° C., 5% CO2. At the end of the incubation, the cell culture plates were centrifuged at 500 g for 5 min, and the cell culture supernatant was collected. The level of cytokines (TNFa and IL 12p40) in the supernatant was measured by electrochemiluminescence immunoassays (Mesoscale Discovery) following manufacturer's recommended protocols. The level of cytokine measured was plotted against the antagonist concentration and fitted to a sigmoidal function to determine the EC50, which are shown below in Table 11.
SMILES,pEC50 [1],pEC50 [2]
"Cc1cc(-c2[nH]c3cc(C4CCC5(C4)CN(CC(N)=O)C5)sc3c2C(C)C)cn2ncnc12 (racemic) [Example 295, 2-(6-(6-Isopropyl-5-(8-methyl-[1,2,4]triazolo[1,5-a]pyridin-6-yl)-4H-thieno[3,2-b]pyrrol-2-yl)-2-azaspiro[3.4]octan-2-yl)acetamide]",9.85,8.92
"Cc1cc(-c2[nH]c3cc(C4CCC5(C4)CN(CC(N)=O)C5)sc3c2C(C)C)cn2ncnc12 (single isomer, unassigned) [Example 310, 2-(6-(6-Isopropyl-5-(8-methyl-[1,2,4]triazolo[1,5-a]pyridin-6-yl)-4H-thieno[3,2-b]pyrrol-2-yl)-2-azaspiro[3.4]octan-2-yl)acetamide]",9.74,8.87
"Cc1cc(-c2[nH]c3cc(C4CCC5(C4)CN(CC(N)=O)C5)sc3c2C(C)C)cn2ncnc12 (single isomer, unassigned) [Example 311, 2-(6-(6-Isopropyl-5-(8-methyl-[1,2,4]triazolo[1,5-a]pyridin-6-yl)-4H-thieno[3,2-b]pyrrol-2-yl)-2-azaspiro[3.4]octan-2-yl)acetamide]",9.24,8.74
Cc1cc(-c2[nH]c3cc(C(=O)NC4CCNCC4)sc3c2C(C)C)cc(C)n1 [Example 4],6.23,6.23
Cc1cc(-c2[nH]c3cc(C(=O)N[C@@H]4CCNC4)sc3c2C(C)C)cc(C)n1 [Example 5],< 6.00,6.18
Cc1cc(-c2[nH]c3cc(C(=O)N[C@H]4CCNC4)sc3c2C(C)C)cc(C)n1 [Example 6],6.05,< 6.00
Cc1cc(-c2[nH]c3cc(C(=O)N4CC[C@H](N)C4)sc3c2C(C)C)cc(C)n1 [Example 7],6.96,7.46
Cc1cc(-c2[nH]c3cc(C(=O)N(C)C4CCNCC4)sc3c2C(C)C)cc(C)n1 [Example 10],7.74,7.26
Cc1cc(-c2[nH]c3cc(C(=O)N4C5CNCC4COC5)sc3c2C(C)C)cc(C)n1 [Example 15],7.22,7.14
Cc1cc(-c2[nH]c3cc(C(=O)N4CC[C@H](F)[C@@H](N)C4)sc3c2C(C)C)cc(C)n1 [Example 26],6.99,
Cc1cc(-c2[nH]c3cc(C(=O)N4CCC[C@H](N)[C@@H]4C)sc3c2C(C)C)cc(C)n1 [Example 33],7.95,
Cc1cc(-c2[nH]c3cc(C(=O)N4CC[C@H](N)C4)sc3c2C(C)C)cn(C)c1=O [Example 35],6.62,
Cc1cc(-c2[nH]c3cc(C(=O)N(C)C4CCNCC4(C)C)sc3c2C(C)C)cc(C)n1 (centres unmarked) [Example 37],7.99,
Cc1cc(-c2[nH]c3cc(C(=O)N4CCN5CCOC[C@H]5C4)sc3c2C(C)C)cc(C)n1 [Example 41],6.17,
Cc1cc(-c2[nH]c3cc(C(=O)N4CCN5CCOC[C@@H]5C4)sc3c2C(C)C)cc(C)n1 [Example 42],6.31,
Cc1cc(-c2[nH]c3cc(C4CCC5(CCNC5)C4)sc3c2C(C)C)cn2ncnc12 (centres unmarked) [Example 278],,7.98

# Other lines, results leading:
pEC50 [1],pEC50 [2],SMILES
7.61,7.70,"Cc1cc(-c2[nH]c3cc(C(=O)N4CCNCC4)sc3c2C(C)C)cc(C)n1 [Example 1, [5-(2,6-dimethyl-4-pyridyl)-6-isopropyl-4H-thieno[3,2-b]pyrrol-2-yl]-piperazin-1-yl-methanone]"
7.43,7.50,Cc1cc(-c2[nH]c3cc(C(=O)N4CCC(N)CC4)sc3c2C(C)C)cc(C)n1 [Example 2]
7.17,7.57,Cc1cc(-c2[nH]c3cc(C(=O)N4CC[C@@H](N)C4)sc3c2C(C)C)cc(C)n1 [Example 8]
6.20,6.43,Cc1cc(-c2[nH]c3cc(C(=O)N4CCNC(C#N)C4)sc3c2C(C)C)cc(C)n1 (centres unmarked) [Example 9]
7.54,6.98,Cc1cc(-c2[nH]c3cc(C(=O)N4CCC[C@H](N)C4)sc3c2C(C)C)cc(C)n1 [Example 11]
7.37,7.18,Cc1cc(-c2[nH]c3cc(C(=O)N4CCC[C@@H](N)C4)sc3c2C(C)C)cc(C)n1 [Example 12]
7.34,7.57,Cc1cc(-c2[nH]c3cc(C(=O)N4CCCNCC4)sc3c2C(C)C)cc(C)n1 [Example 13]
6.51,6.23,Cc1cc(-c2[nH]c3cc(C(=O)N4CCC5(CCNC5)C4)sc3c2C(C)C)cc(C)n1 (centres unmarked) [Example 14]
